The source of these data is ChEMBL document CHEMBL4371021, “BH3 mimetics derived from Bim-BH3 domain core region show PTP1B inhibitory activity” (Bioorg Med Chem Lett, 2019).

The source made the active and inactive calls. The rule behind the calls is not given here. Residues, ends and D or L forms follow the SMILES beside them.

For assay [1], the target named is T1, Tyrosine-protein phosphatase non-receptor type 1 (Homo sapiens) (UniProt P18031).
T1 sequence (whole entry): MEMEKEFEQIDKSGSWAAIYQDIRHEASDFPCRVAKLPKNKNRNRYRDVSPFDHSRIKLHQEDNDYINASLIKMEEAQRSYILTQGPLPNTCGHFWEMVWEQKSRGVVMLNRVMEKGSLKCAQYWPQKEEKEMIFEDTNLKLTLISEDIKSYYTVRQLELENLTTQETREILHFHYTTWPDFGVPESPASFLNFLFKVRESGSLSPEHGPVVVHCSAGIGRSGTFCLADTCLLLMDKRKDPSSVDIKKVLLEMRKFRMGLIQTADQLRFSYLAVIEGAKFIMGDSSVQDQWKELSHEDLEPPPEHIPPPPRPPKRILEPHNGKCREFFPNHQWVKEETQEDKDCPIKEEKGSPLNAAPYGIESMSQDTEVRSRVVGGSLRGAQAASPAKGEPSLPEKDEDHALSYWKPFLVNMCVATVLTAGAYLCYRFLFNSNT
Briefly: Inhibition of recombinant human N-terminal poly histidine-tagged PTP1B (Glu2 to Asn321 residues) expressed in Escherichia coli at 40 umol/L using pNPP as substrate measured for 4 mins relative to control.

For assay [2], the target named is T1, Tyrosine-protein phosphatase non-receptor type 1 (Homo sapiens). Briefly: Binding affinity to recombinant human N-terminal poly histidine-tagged PTP1B (Glu2 to Asn321 residues) expressed in Escherichia coli assessed as association rate constant by surface plasmon resonance analysis. (In general: Surface plasmon resonance follows binding to a sensor surface in real time, without labels.)

Assay [3] concerns the target T2, Tyrosine-protein phosphatase non-receptor type 1 (Homo sapiens, UniProt P18031).
T2 sequence (P18031 whole entry): T1 sequence (whole entry)
Briefly: Binding affinity to recombinant human N-terminal poly histidine-tagged PTP1B (Glu2 to Asn321 residues) expressed in Escherichia coli by surface plasmon resonance analysis.

For assay [4], the target named is T1, Tyrosine-protein phosphatase non-receptor type 1 (Homo sapiens). Briefly: Binding affinity to recombinant human N-terminal poly histidine-tagged PTP1B (Glu2 to Asn321 residues) expressed in Escherichia coli assessed as dissociation rate constant by surface plasmon resonance analysis.
In another assay the test system is HepG2. The assay is described as follows: Induction of insulin-stimulated 2-NBDG uptake in palmitic acid-induced insulin resistant human HepG2 cells at 1 umol/L preincubated for 24 hrs followed by insulin stimulation and measured after 30 mins by fluorescence assay. The class given is functional, cell-based.

What is called inhibition is the relative decrease from the control value, in per cent. Turning to Ac-IAQELRRIGDEFNA-NH2, the inhibition in assay [1] amounted to 3.31%.

Take Ac-IAQELRRIGDEF-NH2: the inhibition in assay [1] turned out to be 2.1%. By Kd is commonly meant the constant that tells how readily two partners part at equilibrium. For Ac-IWIAQELRRIGDEF-NH2, the Ka in assay [2] worked out at 9880 M⁻¹ s⁻¹. The Kd in assay [3] is 128 nM. Also, in assay [1], the inhibition worked out at 5%. In assay [4], the Kdiss was found to be 1.26 ×10⁻³ /s. Consider `CN(CCOc1ccc(CC2SC(=O)NC2=O)cc1)c1ccccn1` (stereo not drawn), for which, in the assay on HepG2, the result was Active.

Take `CC[C@H](C)[C@H](NC(=O)COCCOCCOCCOCCOC)C(=O)N[C@@H](C)C(=O)N[C@@H](CCC(N)=O)C(=O)N[C@@H](CCC(=O)O)C(=O)N[C@@H](CC(C)C)C(=O)N[C@@H](CCCNC(=N)N)C(=O)N[C@@H](CCCNC(=N)N)C(=O)N[C@H](C(=O)NCC(=O)N[C@@H](CC(=O)O)C(=O)N[C@@H](CCC(=O)O)C(=O)N[C@@H](Cc1ccccc1)C(N)=O)[C@@H](C)CC` (HELM PEPTIDE1{[COCCOCCOCCOCCOCC(=O)[*:2]].I.A.Q.E.L.R.R.I.G.D.E.F.[am]}$$$$V2.0): the inhibition in assay [1] was 4.25%.
